Measured values taken from PubChem BioAssay AID504672 (Sanford-Burnham Center for Chemical Genomics, 2011).
The source made the active and inactive calls. Rule as the data show it: active = IC50 below about 71 µM; inactive = the rest.

System: S. cerevisiae tim10 strain, luminescence counterscreen
Test: TIM10 strain luminescence inhibitors – S. cerevisiae, uHTS hits, counter-screen for tim23-1 inhibitor project, dose response (AID 504672);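 also: yeast grew roughly 22 hours at 25 °C before the luminescence read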

| SMILES | IC50 |
| --- | --- |
| Cc1cccc(OCCN2C(=O)C(=O)c3cc(C)ccc32)c1 | 11.6 µM |
| CCn1c(N2CCN(S(=O)(=O)c3ccc(OC)cc3)CC2)nc2ccccc21 | 58 µM |
| CSC1=N/C(=C\c2ccc(C)cc2)C(=O)S1 | 23.8 µM |
| Cc1nc2scc(C)n2c(=O)c1S(=O)(=O)Nc1ccc(N2CCOCC2)cc1 | > 100 µM (inactive) |
| O=C(CCl)Nc1cccc(-c2cnc3ccccc3n2)c1 | 14.6 µM |
| O=C(Nc1cc(-c2ccccc2)[nH]n1)c1ccccc1 | 43.3 µM |
| CCOC(=O)c1cccnc1SCc1cc(=O)n2ccccc2n1 | > 100 µM (inactive) |
| COc1ccc(NC(=O)C#Cc2ccccc2)cc1 | 6.8 µM |
| COc1ccc(C(=O)c2sc(Nc3ccccc3F)nc2N)cc1 | 16.5 µM |
| COc1cc(/C=C/[N+](=O)[O-])ccc1OC(=O)c1cc2ccccc2oc1=O | 3.42 µM |
| CCCCn1c(N)c(N(CCC(C)C)C(=O)c2ccc3c(c2)OCO3)c(=O)[nH]c1=O | > 100 µM (inactive) |
| c1cnc2c(c1)ccc1cccnc12 | 12.3 µM |
| N=C1/C(=C\c2coc3ccccc3c2=O)C(=O)N=C2SC=CN12 | 7.35 µM |
| O=C(NCc1ccc2c(c1)OCO2)c1c(O)nc2sccn2c1=O | 1.63 µM |
| Cc1ccc(S(=O)(=O)Oc2ccccc2C=C2C(=O)N(C)C(=O)N(C)C2=O)cc1 | 4.57 µM |
| CC(C(Sc1ccccc1N)c1ccccc1)[N+](=O)[O-] (stereo not drawn) | 5.26 µM |
| COC(=O)c1ccc(NC(=O)c2nc(S(=O)(=O)Cc3cccc(C)c3)ncc2Cl)cc1 | 2.01 µM |
| Cc1ccc(-c2nnc(N3CCC(C)CC3)c3ccccc23)cc1 | 11.9 µM |
| O=C(Nc1ccc(Nc2ccccc2)cc1)c1ccc(Cl)c([N+](=O)[O-])c1 | 10.8 µM |

| SMILES | IC50 |
| --- | --- |
| CC1(S(=O)(=O)O)CC(=O)c2ccccc2C1=O (stereo not drawn) | 7.14 µM |
| O=C1NN=C(c2ccc(Br)cc2)CC1c1ccc(Cl)cc1 (stereo not drawn) | 23.2 µM |
| COc1ccc(/C=C/C(=O)Nc2ccc3c(c2)CCC3)cc1OC | 64.1 µM |
| O=C(Nc1ccccc1N(C(=O)c1ccco1)S(=O)(=O)c1cccs1)c1ccco1 | 19.4 µM |
| c1ccc(-c2ncc(-c3ccn[nH]3)s2)cc1 | 3.88 µM |
| O=C(N/N=C/C(Br)=C/c1ccccc1)c1ccccc1F | 15.5 µM |
| Nc1ccc(/C=C/C(=O)c2cccs2)cc1 | 3.17 µM |
| CC(C)n1ncc2c(C(=O)NCC(=O)Nc3ccccc3Br)cc(C3CC3)nc21 | 27.8 µM |
| O=C(N/N=C/c1cc(Br)cc(Br)c1O)c1cccc(N2CCCC2=O)c1 | 4.11 µM |
| COc1cc2c3c(c1)C(C)=CC(C)(C)N3C(=O)C2=O | 16 µM |
| CC1(C)c2cc(Cl)ccc2-n2c1cc(O)c(-c1ccccc1)c2=O | 11.5 µM |
| COc1ccc(C2=NNC(c3cccs3)=Nc3ccc(OC)cc32)cc1 | 9.29 µM |
| Cc1nc2scc(C)n2c(=O)c1S(=O)(=O)Nc1ccc(OC(F)(F)F)cc1 | 49.3 µM |
| O=C(COc1ccccc1)N/N=C/c1ccc([N+](=O)[O-])o1 | 10.8 µM |
| C/C=C/c1ccc(OCCOc2cc(C=O)ccc2OC)c(OC)c1 | 16.8 µM |
| CCc1ccc2oc(-c3cc(N)ccc3Cl)nc2c1 | 17 µM |
| O=C(CSc1cccc[n+]1[O-])Nc1ccccc1Oc1ccccc1 | 17.7 µM |
| N#C/C(=C/c1ccc(N2CCOCC2)o1)c1nc2ccccc2[nH]1 | 26.6 µM |
| Cc1ccc2occ(/C=N/NC(=O)c3ccccc3Br)c(=O)c2c1 | 17.3 µM |
